Reference: patent US7691848B2, “Pyrrolobenzodiazepine arylcarboxamides and derivatives thereof as follicle-stimulating hormone receptor antagonists” (Wyeth, priority 2005, dated 2010)
pIC50: −log10 of the molar value.

What was measured:
[1] = target: T1, human FSH receptor (Homo sapiens, UniProt P23945); assay: Follicle-Stimulating Hormone Receptor-Dependent Cre-Luciferase Reporter Gene Assay (CHO FSH-R 6CRE-Luc cells); assay type: cell-based; conditions: for pIC50: dose-response format, in presence of EC50 of purified human FSH
T1 construct: host or cells: CHO-K1 (CHO FSH-R 6CRE-Luc, 1D7 cells)
T1 sequence (P23945 18-695): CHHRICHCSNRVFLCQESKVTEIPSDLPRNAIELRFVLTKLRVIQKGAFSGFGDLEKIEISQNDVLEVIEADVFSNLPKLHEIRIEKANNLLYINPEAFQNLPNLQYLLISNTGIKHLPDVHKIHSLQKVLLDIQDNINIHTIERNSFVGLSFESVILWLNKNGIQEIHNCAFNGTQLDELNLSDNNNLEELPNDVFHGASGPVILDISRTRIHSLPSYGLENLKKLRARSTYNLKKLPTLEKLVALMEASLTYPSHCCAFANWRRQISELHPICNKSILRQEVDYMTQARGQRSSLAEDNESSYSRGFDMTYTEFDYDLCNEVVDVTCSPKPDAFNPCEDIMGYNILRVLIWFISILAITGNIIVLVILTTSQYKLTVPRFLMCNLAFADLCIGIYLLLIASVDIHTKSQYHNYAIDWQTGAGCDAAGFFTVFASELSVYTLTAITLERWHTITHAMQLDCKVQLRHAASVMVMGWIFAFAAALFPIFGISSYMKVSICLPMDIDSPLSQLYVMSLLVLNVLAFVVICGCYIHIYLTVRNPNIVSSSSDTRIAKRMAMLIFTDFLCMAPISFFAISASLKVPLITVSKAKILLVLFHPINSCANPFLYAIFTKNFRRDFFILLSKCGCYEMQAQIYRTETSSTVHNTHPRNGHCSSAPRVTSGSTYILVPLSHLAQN
Outline: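 CHO-K1 cells stably expressing human FSH receptor and a 6×CRE-driven luciferase reporter; compounds in growth medium with 0.2% DMSO, incubated 4 h at 37 °C. Luciferase measured by chemiluminescence (RLU/sec/well); 2-dose results given as percent inhibition of the response to an EC50 concentration of FSH.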

[2] = target: T2, hFSH-R (Homo sapiens, UniProt P23945); assay: cAMP accumulation (RIA) in CHO-3D2 cells (hFSH-R), hFSH-induced; assay type: cell-based; conditions: for Emax: read-out: cAMP % efficacy
T2 construct: expressed in transfected cells; host or cells: CHO-3D2 cells (CHO-K1 parental line)
T2 sequence (P23945 18-695): T1 sequence (P23945 18-695)
Protocol: In Vitro Bio-Assay, Selectivity and Dependency of Agonists and Antagonists to the FSH Receptor
Compound Vehicle: Stock compounds were solubilized in 100% DMSO (Sigma-Aldrich Chemical Co., St. Louis, Mo.) at a concentration of 30 mM. The compounds subsequently were diluted in sterile assay medium consisting of Opti-MEM® I (Invitrogen/Life Technologies, Carlsbad, Calif.) with 0.1% (w/v) BSA (Sigma-Aldrich) prior to use in the bio-assay. The final concentration of DMSO in the assay was 0.1%.
Plated cells are then incubated at 37° C. in a humidified 5% CO2/95% air atmosphere.
Assay: On the day of the assay, cells were washed three times with 100 μl/well of assay medium consisting of Opti-MEM® I (Invitrogen/Life Technologies) with 0.1% (w/v) BSA (Sigma-Aldrich). Medium was removed and 100 μl of assay medium was added to each well. Plates were incubated for an additional 30 minutes at 37° C. […] Reactions were terminated by the addition of 50 μl of 0.2N hydrochloric acid to each well and cAMP-accumulation was measured by radioimmunoassay (RIA) using a commercially available kit (Amersham Biosciences, Piscataway, N.J.).
All test compounds were evaluated in a dose-response paradigm ranging from 0.01 to 30 μM. Controls and test compounds were evaluated in quadruplicate in a 96-well format.
Along with the test compounds, FSH also was run as a positive control in the agonist mode using concentrations ranging from 0.1-1000 ng/ml.
Data were analyzed by one-way analysis of variance and significant differences between treatments and control determined by Least Significant Difference test.
Test compounds were compared to the effect of purified human FSH.

| Structure (SMILES) | pIC50 [1] | pIC50 [2] | Emax [2] [%] | melting point [°C] | inhibition at 30 µM ([1]; 2-dose format, concentration in parentheses 30 μM, inhibition of the response to EC50 of FSH) [%] |
| --- | --- | --- | --- | --- | --- |
| COc1ccc(CNC(=O)c2ccc3n2Cc2ccccc2N(C(=O)c2ccc(-c4ccccc4C)c(C)c2)C3)cc1 [Example 8] | 5.62 | 5.44 | 63 | 127 to 128 | – |
| COc1cc(C(=O)N2Cc3ccc(C(=O)NCc4ccc5c(c4)OCO5)n3Cc3ccccc32)ccc1-c1ccccc1C [Example 40] | 5.98 | 6.40 | 90 | 167 to 168 | – |
| Cc1ccccc1-c1ccc(C(=O)N2Cc3ccc(C(=O)NCc4ccc(Cl)cc4)n3Cc3ccccc32)cc1C [Example 18] | – | < 4.52 | – | 196 to 197 | 58 |
| COc1cc(C(=O)N2Cc3ccc(C(=O)NCc4cccc(C(F)(F)F)c4)n3Cc3ccccc32)ccc1-c1ccccc1C [Example 42, 10-[(2-METHOXY-2′-METHYL-1,1′-BIPHENYL-4-YL)CARBONYL]-N-[3-(TRIFLUOROMETHYL)BENZYL]-10,11-DIHYDRO-5H-PYRROLO[2,1-C][1,4]BENZODIAZEPINE-3-CARBOXAMIDE] | 5.36 | 5.20 | 74 | 176 to 177 | – |
| Cc1ccccc1-c1ccc(C(=O)N2Cc3ccc(C(=O)NCc4ccc5c(c4)OCO5)n3Cc3ccccc32)cc1C [Example 23] | 5.85 | 5.11 | 77 | 149 to 151 | – |
| Cc1ccccc1-c1ccc(C(=O)N2Cc3ccc(C(=O)NCc4ccccc4)n3Cc3ccccc32)cc1C [Example 15] | 5.59 | 6.40 | 90 | 138 to 141 | – |
| Cc1ccc(CNC(=O)c2ccc3n2Cc2ccccc2N(C(=O)c2ccc(-c4ccccc4C)c(C)c2)C3)c(C)c1 [Example 21] | 5.21 | < 4.52 | – | 159 to 161 | – |
| Cc1ccccc1CNC(=O)c1ccc2n1Cc1ccccc1N(C(=O)c1ccc(-c3ccccc3C)c(C)c1)C2 [Example 17] | 5.19 | 5.59 | 88 | 128 to 130 | – |

Results, then the compound that gave them:

| pIC50 [1] | pIC50 [2] | Emax [2] [%] | melting point [°C] | inhibition at 30 µM ([1]; 2-dose format, concentration in parentheses 30 μM, inhibition of the response to EC50 of FSH) [%] | Structure (SMILES) |
| --- | --- | --- | --- | --- | --- |
| < 4.52 | 4.89 | 60 | 190 to 194 | – | COc1cc(C(=O)N2Cc3ccc(C(=O)NCCc4ccc(O)cc4)n3Cc3ccccc32)ccc1-c1ccccc1C [Example 55, N-[2-(4-HYDROXYPHENYL)ETHYL]-10-[(2-METHOXY-2′-METHYL-1,1′-BIPHENYL-4-YL)CARBONYL]-10,11-DIHYDRO-5H-PYRROLO[2,1-C][1,4]BENZODIAZEPINE-3-CARBOXAMIDE] |
| 6.10 | 6.70 | 100 | 129 to 131 | – | Cc1ccccc1-c1ccc(C(=O)N2Cc3ccc(C(=O)NCCc4ccc(O)cc4)n3Cc3ccccc32)cc1C [Example 31] |
| 5.87 | < 4.52 | – | 170 to 174 | – | COc1cc(C(=O)N2Cc3ccc(C(=O)NCc4ccccc4)n3Cc3ccccc32)ccc1-c1ccccc1C [Example 44, N-BENZYL-10-[(2-METHOXY-2′-METHYL-1,1′-BIPHENYL-4-YL)CARBONYL]-10,11-DIHYDRO-5H-PYRROLO[2,1-C][1,4]BENZODIAZEPINE-3-CARBOXAMIDE] |
| 5.95 | 6.40 | 95 | 214 to 215 | – | COc1cc(C(=O)N2Cc3ccc(C(=O)NCc4ccc(F)cc4)n3Cc3ccccc32)ccc1-c1ccccc1C [Example 60, N-(4-FLUOROBENZYL)-10-[(2-METHOXY-2′-METHYL-1,1′-BIPHENYL-4-YL)CARBONYL]-10,11-DIHYDRO-5H-PYRROLO[2,1-C][1,4]BENZODIAZEPINE-3-CARBOXAMIDE] |
